Measured values taken from PMC11126936, “Reactivating Hippo by drug compounds to suppress gastric cancer and enhance chemotherapy sensitivity” (The Journal of Biological Chemistry, 2024).
Values joined by “and” are separate entries in the source; they are usually repeats but may differ in a detail not shown here. Identical values can stand only once. Like-named read-outs stand apart in the source and are kept apart here. Blank lines part the entries; values can stand above or below the molecule they belong to.

How the values were obtained:
[1] = tested on: HGC-27 cells; test: Cell viability assay in HGC-27 cells; assay type: cell-based, human
[2] = biological target: T1, STRN3–MST2 interaction (Homo sapiens, UniProt Q13188); test: MBP/GST pull-down and Co-IP, STRN3–MST2; assay type: binding
T1 construct: GST-tagged MST2 (amino acid 1–308), MBP-tagged MST2 (amino acid 1–308); made in house; host or cells: E. coli BL21 Codon plus (DE3)

[3] = tested on: NUGC-4 cells; test: NUGC-4 cell viability, XMU-MP-1 with cisplatin; assay type: cell-based, human
[4] = tested on: AGS cells; test: Killing efficiency in AGS cells; assay type: cell-based, human; settings: 0.05 μM DSF, 20 μM cisplatin, alone or combined
[5] = tested on: MKN-28 cells; test: Killing efficiency in MKN-28 cells; assay type: cell-based, human; settings: nontoxic concentrations, alone or combined
[6] = tested on: AGS cells xenograft; test: AGS xenograft tumor model; settings: intratumoral injection, five consecutive days, vs control
[7] = tested on: 11 different GC cells; test: Cisplatin cell viability in 11 GC cell lines; settings: read-out: IC50, cisplatin-sensitive GC cell lines; cell lines with higher pMST1/2 such as NUGC-4
[8] = biological target: T2, purified MST2 recombinant protein (UniProt Q13188); test: MST; Monolith NT.115, 25 °C, fluorescent-labeled protein; STRN3 and MST2 without CX
T2 sequence (Q13188 1-491, species assumed, looked up): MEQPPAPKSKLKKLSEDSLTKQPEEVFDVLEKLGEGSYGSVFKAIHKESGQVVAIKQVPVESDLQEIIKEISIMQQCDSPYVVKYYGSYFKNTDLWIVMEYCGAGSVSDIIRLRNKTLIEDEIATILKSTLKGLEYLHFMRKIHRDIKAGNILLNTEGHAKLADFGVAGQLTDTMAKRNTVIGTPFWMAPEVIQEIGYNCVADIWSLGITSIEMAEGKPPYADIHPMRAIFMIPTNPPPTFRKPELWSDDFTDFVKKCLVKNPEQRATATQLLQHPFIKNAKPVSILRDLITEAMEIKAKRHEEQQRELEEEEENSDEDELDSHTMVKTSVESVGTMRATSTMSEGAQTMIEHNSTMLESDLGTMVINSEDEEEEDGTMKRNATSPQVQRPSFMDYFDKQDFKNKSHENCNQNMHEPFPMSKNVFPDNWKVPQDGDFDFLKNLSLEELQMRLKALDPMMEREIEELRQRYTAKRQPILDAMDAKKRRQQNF

[9] = biological target: T3, purified PP2Aa (8–589) (UniProt P30153 8-589); test: MST; Monolith NT.115, 25 °C, fluorescent-labeled protein; STRN3 to PP2Aa, also with DSF or TH added; settings: both partners purified
T3 construct: As used in ITC and MST
T3 sequence (P30153 8-589): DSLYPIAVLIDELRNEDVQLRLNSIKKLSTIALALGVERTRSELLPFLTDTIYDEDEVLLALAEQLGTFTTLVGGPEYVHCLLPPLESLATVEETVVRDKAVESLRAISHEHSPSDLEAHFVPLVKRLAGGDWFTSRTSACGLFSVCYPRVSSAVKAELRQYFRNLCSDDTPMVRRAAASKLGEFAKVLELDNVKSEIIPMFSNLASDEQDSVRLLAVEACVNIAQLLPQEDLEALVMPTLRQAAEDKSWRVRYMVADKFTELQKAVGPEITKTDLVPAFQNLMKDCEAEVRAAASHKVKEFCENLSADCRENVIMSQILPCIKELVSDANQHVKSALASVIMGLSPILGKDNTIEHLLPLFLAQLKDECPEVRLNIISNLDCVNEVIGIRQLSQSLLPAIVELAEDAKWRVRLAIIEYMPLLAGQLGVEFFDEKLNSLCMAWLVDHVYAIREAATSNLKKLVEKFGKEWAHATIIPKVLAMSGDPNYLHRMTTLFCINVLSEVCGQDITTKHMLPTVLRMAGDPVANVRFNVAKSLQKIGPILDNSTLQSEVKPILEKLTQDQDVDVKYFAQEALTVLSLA

[10] = biological target: T3, purified PP2Aa (8–589); settings: both partners purified
[11] = biological target: T4, MST2 (Homo sapiens, UniProt Q13188); test: MST assay, binding to MST2
T4 construct: made in house; host or cells: E. coli BL21 Codon plus (DE3)
T4 sequence (Q13188 1-491): T2 sequence (Q13188 1-491, species assumed, looked up)

[12] = biological target: T5, MBP-tagged MST2 (amino acid 1–308) (UniProt Q13188 1-308); settings: both partners purified
T5 construct: MST2 kinase, amino acid 1-308; also called MBP-MST2; source: E. coli BL21 Coden plus (DE3), purified (MBP beads, size-exclusion chromatography)
T5 sequence (looked up): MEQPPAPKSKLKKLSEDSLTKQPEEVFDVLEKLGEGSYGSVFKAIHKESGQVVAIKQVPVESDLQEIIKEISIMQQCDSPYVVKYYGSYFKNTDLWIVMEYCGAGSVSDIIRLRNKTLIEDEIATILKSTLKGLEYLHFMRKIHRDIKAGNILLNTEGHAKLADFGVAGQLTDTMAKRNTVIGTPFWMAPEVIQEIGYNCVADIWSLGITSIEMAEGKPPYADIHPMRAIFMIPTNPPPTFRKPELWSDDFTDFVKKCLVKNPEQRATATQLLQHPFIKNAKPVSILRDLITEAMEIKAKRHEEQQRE

[13] = biological target: T6, GST-tagged MST2 (amino acid 1–308) (UniProt Q13188 1-308); settings: both partners purified
T6 construct: MST2 kinase, amino acid 1-308; also called GST-MST2; source: E. coli BL21 Coden plus (DE3), purified (GST beads, size-exclusion chromatography)
T6 sequence (looked up): T5 sequence (looked up)

[14] = Homo sapiens, HGC-27, cell viability, read-out: IC50 values in HGC-27 cells
[15] = cell viability, read-out: IC50 values in HGC-27 cells

Molecule: O=c1c2ccccc2[se]n1-c1ccccc1 [Ebselen]
IC50 [1, 14]: 27.5 µM

Molecule: Oc1cc2c(cc1O)C1c3ccc(O)c(O)c3OCC1(O)C2 (centres unmarked) [HAEMATOXYLIN]
IC50 [1, 14]: 37.9 µM

Molecule: O=C([O-])c1ccccc1-c1c2cc(Br)c(=O)cc-2oc2[c]([Hg+])c([O-])c(Br)cc12.[Na+].[Na+].[OH-] [Merbromin]
IC50 [1, 15]: 15.2 µM

Molecule: CC(=O)[O][Hg][c]1ccccc1 [Phenylmercuric acetate]
IC50 ([1]; cell viability, listed as phenylmercuric acetate, read-out: IC50 values in HGC-27 cells): < 5 µM | IC50 [1, 15]: 4.05 µM

STRN3–MST2 interaction in MBP pull-down [2]: able to disrupt
Molecule: Cc1ccc(C(=O)Nc2ccc(S(=O)(=O)[O-])c3cc(S(=O)(=O)[O-])cc(S(=O)(=O)[O-])c23)cc1NC(=O)c1cccc(NC(=O)Nc2cccc(C(=O)Nc3cc(C(=O)Nc4ccc(S(=O)(=O)[O-])c5cc(S(=O)(=O)[O-])cc(S(=O)(=O)[O-])c45)ccc3C)c2)c1.[Na+].[Na+].[Na+].[Na+].[Na+].[Na+] [Suramin Sodium Salt]
inhibition of HGC-27 cell growth / viability ([1]; result in words): not

Molecule: COc1cc2c(NC3CCN(CC4CCCCC4)CC3)nc(N3CCCN(C(C)C)CC3)nc2cc1OCCCN1CCCCC1 [UNC0631]
IC50 [1, 15]: < 5 µM and 2.86 µM

Molecule: COc1ccc(C(=O)O[C@H]2CC[C@@]3(C)[C@@H]4CC[C@H]5[C@]6(O)C[C@H](O)[C@@]7(O)[C@@H](CN8C[C@@H](C)CC[C@H]8[C@@]7(C)O)[C@]6(O)C[C@@]53O[C@]24O)cc1OC [Veratridine]
IC50 ([1]; Homo sapiens, HGC-27, read-out: IC50 values in HGC-27 cells): 15.7 µM

Molecule: CN1C(=O)c2sccc2N(C)c2nc(Nc3ccc(S(N)(=O)=O)cc3)ncc21 [XMU-MP-1]
effect of co-treatment on cisplatin sensitivity [3]: triggered much more resistance to cisplatin

Molecule: N.N.[Cl][Pt][Cl] [cisplatin]
efficiency in killing cancer cells [4]: about 20% | efficiency in killing cancer cells [5]: about 20% | tumor weight / tumor growth [6]: modestly lower tumor weights | IC50 [7]: < 20 µM

Kd [8]: 0.624 µM | Kd [9]: 20.7 µM | Kd [10]: 11.9 µM
B1: STRN3 (64–145) (domain or fragment, UniProt Q13033 64-145, looked up)
chain: TIPGILHYIQHEWARFEMERAHWEVERAELQARIAFLQGERKGQENLKKDLVRRIKMLEYALKQERAKYHKLKYGTELNQGD
notes: STRN3 (striatin-3), amino acid 64-145

Kd [11]: 0.624 µM
B2: STRN3: recombinant His-SUMO-tagged STRN3 (amino acid 64–145), binding partner of PP2Aa and MST2 (protein, UniProt Q13033 64-145, looked up, fragment)
chain: B1 chain
modifications: His-SUMO tag

binding result [12]: binds | binding result [13]: binds
B3: His-SUMO-tagged STRN3 (amino acid 64–145) (domain or fragment, UniProt Q13033 64-145, looked up)
chain: B1 chain
notes: STRN3 (striatin-3), amino acid 64-145; Used where the tag is named or used for capture: the GST and MBP pull-downs and the nickel chelate acceptor beads of the AlphaScreen; also called HS-STRN3; His-tagged STRN3
